The target in one assay is T1, PI3K δ (Homo sapiens, UniProt O00329).
T1 construct: purchased Upstate
Put plainly: In vitro PI3K δ inhibition assay. It is filed as biochemical. As to the method: (§1) Class I PI3-Ks can be either purchased (p110α/p85α, p110β/p85α, p110δ/p85α from Upstate, and p110γ from Sigma) or expressed as previously described (Knight et al., 2004). IC50 values are measured using either a standard TLC assay for lipid kinase activity (described below) or a high-throughput membrane capture assay. Kinase reactions are performed by preparing a reaction mixture containing kinase, inhibitor (2% DMSO final concentration), buffer (25 mM HEPES, pH 7.4, 10 mM MgCl2), and freshly sonicated phosphatidylinositol (100 μg/ml). Reactions are initiated by the addition of ATP containing 10 μCi of γ-32P-ATP to a final concentration of 10 or 100 μM and allowed to proceed for 5 minutes at room temperature. For TLC analysis, reactions are then terminated by the addition of 105 μl 1N HCl followed by 160 μl CHCl3:MeOH (1:1). The biphasic mixture is vortexed, briefly centrifuged, and the organic phase is transferred to a new tube using a gel loading pipette tip precoated with CHCl3. This extract is spotted on TLC plates and developed for 3-4 hours in a 65:35 solution of n-propanol:1M acetic acid. The TLC plates are then dried, exposed to a phosphorimager screen (Storm, Amersham), and quantitated. For each compound, kinase activity is measured at 10-12 inhibitor concentrations representing two-fold dilutions from the highest concentration tested (typically, 200 μM). […] Other commercial kits or systems for assaying PI3-K activities are available. The commercially available kits or systems can be used to screen for inhibitors and/or agonists of PI3-Ks including, but not limited to, PI 3-Kinase α, β, δ, and γ. An exemplary system is PI 3-Kinase (human) HTRF™ Assay from Upstate. […] Briefly, the assay is a time resolved FRET assay that indirectly measures PIP3 product formed by the activity of a PI3-K. The kinase reaction is performed in a microtiter plate (e.g., a 384 well microtiter plate). The total reaction volume is approximately 20 μl per well. In the first step, each well receives 2 μl of test compound in 20% dimethylsulphoxide resulting in a 2% DMSO final concentration. Next, approximately 14.5 μl of a kinase/PIP2 mixture (diluted in 1× reaction buffer) is added per well for a final concentration of 0.25-0.3 μg/ml kinase and 10 μM PIP2. The plate is sealed and incubated for 15 minutes at room temperature. To start the reaction, 3.5 μl of ATP (diluted in 1× reaction buffer) is added per well for a final concentration of 10 μM ATP. The plate is sealed and incubated for 1 hour at room temperature. The reaction is stopped by adding 5 μl of Stop Solution per well and then 5 μl of Detection Mix is added per well. The plate is sealed, incubated for 1 hour at room temperature, and then read on an appropriate plate reader. Data is analyzed and IC50s are generated using GraphPad Prism 5.

Another assay deals with Balb/c splenic B cells. The assay is described as follows: B cell activation and proliferation assay (Alamar Blue). It is filed as cell-based. As to conditions: Mus musculus, read-out: B cell proliferation EC50. As to the method:
The ability of one or more subject compounds to inhibit B cell activation and proliferation is determined according to standard procedures known in the art. For example, an in vitro cellular proliferation assay is established that measures the metabolic activity of live cells. The assay is performed in a 96 well microtiter plate using Alamar Blue reduction. Balb/c splenic B cells are purified over a Ficoll-Paque™ PLUS gradient followed by magnetic cell separation using a MACS B cell Isolation Kit (Miletenyi). Cells are plated in 90 μl at 50,000 cells/well in B Cell Media (RPMI+10% FBS+Penn/Strep+50 μM bME+5 mM HEPES). A compound disclosed herein is diluted in B Cell Media and added in a 10 μl volume. Plates are incubated for 30 min at 37° C. and 5% CO2 (0.2% DMSO final concentration). A 50 μl B cell stimulation cocktail is then added containing either 10 μg/ml LPS or 5 μg/ml F(ab′)2 Donkey anti-mouse IgM plus 2 ng/ml recombinant mouse IL4 in B Cell Media. Plates are incubated for 72 hours at 37° C. and 5% CO2. A volume of 15 μL of Alamar Blue reagent is added to each well and plates are incubated for 5 hours at 37° C. and 5% CO2. Alamar Blue fluoresce is read at 560Ex/590Em, and IC50 or EC50 values are calculated using GraphPad Prism 5.
A general note: Resazurin is reduced to fluorescent resorufin, in cell work by metabolically active cells.

A further assay concerns the target T2, PI3K γ (Homo sapiens, UniProt P48736).
T2 construct: purchased Sigma
Put plainly: In vitro PI3K γ inhibition assay. Format: biochemical. As to the method: as §1

The target in a further assay is T3, PI3K α (Homo sapiens, UniProt P42336).
T3 construct: purchased Upstate
Put plainly: In vitro PI3K α inhibition assay. Format: biochemical. As to the method: (§2) Class I PI3-Ks can be either purchased (p110α/p85α, p110β/p85α, p110δ/p85α from Upstate, and p110γ from Sigma) or expressed as previously described (Knight et al., 2004). IC50 values are measured using either a standard TLC assay for lipid kinase activity (described below) or a high-throughput membrane capture assay. Kinase reactions are performed by preparing a reaction mixture containing kinase, inhibitor (2% DMSO final concentration), buffer (25 mM HEPES, pH 7.4, 10 mM MgCl2), and freshly sonicated phosphatidylinositol (100 μg/ml). Reactions are initiated by the addition of ATP containing 10 μCi of γ-32P-ATP to a final concentration of 10 or 100 μM and allowed to proceed for 5 minutes at room temperature. For TLC analysis, reactions are then terminated by the addition of 105 μl 1N HCl followed by 160 μl CHCl3:MeOH (1:1). The biphasic mixture is vortexed, briefly centrifuged, and the organic phase is transferred to a new tube using a gel loading pipette tip precoated with CHCl3. This extract is spotted on TLC plates and developed for 3-4 hours in a 65:35 solution of n-propanol:1M acetic acid. The TLC plates are then dried, exposed to a phosphorimager screen (Storm, Amersham), and quantitated. For each compound, kinase activity is measured at 10-12 inhibitor concentrations representing two-fold dilutions from the highest concentration tested (typically, 200 μM).
(§3) Other commercial kits or systems for assaying PI3-K activities are available. The commercially available kits or systems can be used to screen for inhibitors and/or agonists of PI3-Ks including, but not limited to, PI 3-Kinase α, β, δ, and γ. An exemplary system is PI 3-Kinase (human) HTRF™ Assay from Upstate. […] Briefly, the assay is a time resolved FRET assay that indirectly measures PIP3 product formed by the activity of a PI3-K. The kinase reaction is performed in a microtiter plate (e.g., a 384 well microtiter plate). The total reaction volume is approximately 20 μl per well. In the first step, each well receives 2 μl of test compound in 20% dimethylsulphoxide resulting in a 2% DMSO final concentration. Next, approximately 14.5 μl of a kinase/PIP2 mixture (diluted in 1× reaction buffer) is added per well for a final concentration of 0.25-0.3 μg/ml kinase and 10 μM PIP2. The plate is sealed and incubated for 15 minutes at room temperature. To start the reaction, 3.5 μl of ATP (diluted in 1× reaction buffer) is added per well for a final concentration of 10 μM ATP. The plate is sealed and incubated for 1 hour at room temperature. The reaction is stopped by adding 5 μl of Stop Solution per well and then 5 μl of Detection Mix is added per well. The plate is sealed, incubated for 1 hour at room temperature, and then read on an appropriate plate reader. Data is analyzed and IC50s are generated using GraphPad Prism 5.

Another assay has as its target T4, PI3K β (Homo sapiens, UniProt P42338).
T4 construct: purchased Upstate
Put plainly: In vitro PI3K β inhibition assay. Format: biochemical. As to the method:
as §2, §3

T4 sequence (P42338 whole entry): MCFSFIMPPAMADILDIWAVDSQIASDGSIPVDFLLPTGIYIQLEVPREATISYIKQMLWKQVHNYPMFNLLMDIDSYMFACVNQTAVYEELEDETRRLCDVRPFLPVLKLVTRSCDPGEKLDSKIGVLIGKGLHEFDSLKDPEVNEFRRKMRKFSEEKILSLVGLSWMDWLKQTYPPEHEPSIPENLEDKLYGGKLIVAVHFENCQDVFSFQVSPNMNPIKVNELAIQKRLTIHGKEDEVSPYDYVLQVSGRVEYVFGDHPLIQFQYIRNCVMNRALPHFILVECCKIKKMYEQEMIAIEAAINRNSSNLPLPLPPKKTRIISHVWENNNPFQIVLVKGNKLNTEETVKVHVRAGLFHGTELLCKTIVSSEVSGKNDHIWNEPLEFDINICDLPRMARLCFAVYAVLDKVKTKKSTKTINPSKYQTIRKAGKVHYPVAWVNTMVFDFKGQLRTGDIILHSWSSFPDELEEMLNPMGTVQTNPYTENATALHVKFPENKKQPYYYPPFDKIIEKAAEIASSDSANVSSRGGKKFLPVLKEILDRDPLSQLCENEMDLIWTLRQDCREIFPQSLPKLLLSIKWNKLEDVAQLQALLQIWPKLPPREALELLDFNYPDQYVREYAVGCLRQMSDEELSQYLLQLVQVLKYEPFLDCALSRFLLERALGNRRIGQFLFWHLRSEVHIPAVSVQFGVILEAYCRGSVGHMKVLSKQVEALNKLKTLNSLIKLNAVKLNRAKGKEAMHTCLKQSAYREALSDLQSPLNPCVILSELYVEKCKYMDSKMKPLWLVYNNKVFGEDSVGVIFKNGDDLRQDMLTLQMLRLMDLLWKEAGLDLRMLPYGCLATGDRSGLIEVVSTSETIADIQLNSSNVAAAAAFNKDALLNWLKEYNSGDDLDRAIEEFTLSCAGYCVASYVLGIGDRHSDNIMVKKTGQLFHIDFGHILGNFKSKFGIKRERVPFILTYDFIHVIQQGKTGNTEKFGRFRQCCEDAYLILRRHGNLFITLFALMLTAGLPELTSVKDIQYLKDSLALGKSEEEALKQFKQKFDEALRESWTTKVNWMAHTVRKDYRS
T4 sequence (P27986 whole entry partner): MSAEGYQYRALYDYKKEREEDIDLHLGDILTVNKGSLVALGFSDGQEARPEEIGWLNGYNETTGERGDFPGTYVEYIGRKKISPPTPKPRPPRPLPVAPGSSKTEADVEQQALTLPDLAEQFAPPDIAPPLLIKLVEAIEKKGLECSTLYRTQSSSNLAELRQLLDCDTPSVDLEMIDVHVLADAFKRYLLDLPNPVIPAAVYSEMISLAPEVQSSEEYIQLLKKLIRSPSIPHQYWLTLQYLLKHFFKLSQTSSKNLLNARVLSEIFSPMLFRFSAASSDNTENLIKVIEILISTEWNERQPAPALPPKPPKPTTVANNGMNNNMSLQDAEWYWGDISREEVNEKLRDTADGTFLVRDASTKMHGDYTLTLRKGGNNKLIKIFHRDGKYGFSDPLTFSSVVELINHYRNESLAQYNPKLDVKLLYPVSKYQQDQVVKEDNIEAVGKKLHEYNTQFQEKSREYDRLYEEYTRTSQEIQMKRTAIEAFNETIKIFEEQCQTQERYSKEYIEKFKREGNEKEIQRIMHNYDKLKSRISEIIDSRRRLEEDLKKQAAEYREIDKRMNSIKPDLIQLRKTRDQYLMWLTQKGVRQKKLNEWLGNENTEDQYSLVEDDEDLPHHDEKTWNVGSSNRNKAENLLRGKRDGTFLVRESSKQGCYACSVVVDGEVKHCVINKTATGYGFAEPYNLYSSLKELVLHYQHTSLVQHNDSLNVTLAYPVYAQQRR
T1 sequence (O00329 whole entry): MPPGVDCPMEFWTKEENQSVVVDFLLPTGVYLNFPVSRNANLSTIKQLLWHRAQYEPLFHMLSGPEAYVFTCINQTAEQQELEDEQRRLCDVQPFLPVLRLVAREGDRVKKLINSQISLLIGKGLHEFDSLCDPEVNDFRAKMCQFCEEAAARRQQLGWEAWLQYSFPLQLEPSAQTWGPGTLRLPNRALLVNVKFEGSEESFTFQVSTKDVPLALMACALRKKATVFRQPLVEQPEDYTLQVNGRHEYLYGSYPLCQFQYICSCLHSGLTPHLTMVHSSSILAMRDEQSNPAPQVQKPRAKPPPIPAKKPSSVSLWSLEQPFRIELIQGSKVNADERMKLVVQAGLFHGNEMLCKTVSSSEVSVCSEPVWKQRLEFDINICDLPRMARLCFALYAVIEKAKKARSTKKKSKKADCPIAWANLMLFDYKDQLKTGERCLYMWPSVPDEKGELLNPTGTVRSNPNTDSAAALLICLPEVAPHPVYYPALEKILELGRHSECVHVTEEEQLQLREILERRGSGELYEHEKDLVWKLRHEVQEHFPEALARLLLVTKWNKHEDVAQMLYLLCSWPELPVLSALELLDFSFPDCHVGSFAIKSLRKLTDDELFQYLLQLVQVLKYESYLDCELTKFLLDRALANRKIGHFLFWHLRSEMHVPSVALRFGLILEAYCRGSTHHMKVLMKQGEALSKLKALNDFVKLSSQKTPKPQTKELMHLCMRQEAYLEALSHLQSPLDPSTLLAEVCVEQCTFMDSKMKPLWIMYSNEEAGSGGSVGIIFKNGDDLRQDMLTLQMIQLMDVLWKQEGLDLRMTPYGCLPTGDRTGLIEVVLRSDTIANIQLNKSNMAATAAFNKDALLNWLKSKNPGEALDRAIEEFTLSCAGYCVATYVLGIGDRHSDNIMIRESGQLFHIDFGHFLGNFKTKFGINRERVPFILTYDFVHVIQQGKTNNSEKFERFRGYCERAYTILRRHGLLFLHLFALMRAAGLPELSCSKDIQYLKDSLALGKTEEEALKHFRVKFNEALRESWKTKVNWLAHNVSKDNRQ
T1 sequence (P27986 whole entry partner): as the sequence (P27986 whole entry partner) above
T2 sequence (P48736 whole entry): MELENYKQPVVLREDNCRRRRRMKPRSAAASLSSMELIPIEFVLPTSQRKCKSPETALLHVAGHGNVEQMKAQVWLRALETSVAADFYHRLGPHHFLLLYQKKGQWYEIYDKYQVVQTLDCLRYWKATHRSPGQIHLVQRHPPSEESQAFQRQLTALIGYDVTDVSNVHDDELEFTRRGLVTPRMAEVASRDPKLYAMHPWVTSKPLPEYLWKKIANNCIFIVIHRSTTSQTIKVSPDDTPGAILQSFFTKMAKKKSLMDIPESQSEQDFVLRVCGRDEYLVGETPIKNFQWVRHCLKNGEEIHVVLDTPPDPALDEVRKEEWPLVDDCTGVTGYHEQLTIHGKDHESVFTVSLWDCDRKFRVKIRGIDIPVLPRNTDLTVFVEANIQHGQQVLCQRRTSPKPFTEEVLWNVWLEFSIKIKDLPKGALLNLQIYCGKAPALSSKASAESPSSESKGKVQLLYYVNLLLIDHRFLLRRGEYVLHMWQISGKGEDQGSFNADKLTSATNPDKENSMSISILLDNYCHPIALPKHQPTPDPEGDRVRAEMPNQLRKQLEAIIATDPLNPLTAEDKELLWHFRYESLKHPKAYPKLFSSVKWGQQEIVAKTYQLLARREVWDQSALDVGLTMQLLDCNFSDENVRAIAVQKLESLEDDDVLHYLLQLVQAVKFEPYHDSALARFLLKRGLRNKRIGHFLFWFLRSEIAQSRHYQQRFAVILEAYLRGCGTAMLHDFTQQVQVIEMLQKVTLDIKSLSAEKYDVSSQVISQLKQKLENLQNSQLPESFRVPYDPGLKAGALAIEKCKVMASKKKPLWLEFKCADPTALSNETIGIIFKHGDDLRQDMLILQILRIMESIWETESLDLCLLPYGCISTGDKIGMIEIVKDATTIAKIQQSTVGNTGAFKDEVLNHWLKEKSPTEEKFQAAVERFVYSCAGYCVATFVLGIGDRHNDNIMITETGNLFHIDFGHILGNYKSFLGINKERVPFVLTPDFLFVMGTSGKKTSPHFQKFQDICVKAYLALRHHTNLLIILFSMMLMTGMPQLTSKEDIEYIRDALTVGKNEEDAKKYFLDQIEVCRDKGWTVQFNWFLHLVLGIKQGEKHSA
T3 sequence (P42336 whole entry): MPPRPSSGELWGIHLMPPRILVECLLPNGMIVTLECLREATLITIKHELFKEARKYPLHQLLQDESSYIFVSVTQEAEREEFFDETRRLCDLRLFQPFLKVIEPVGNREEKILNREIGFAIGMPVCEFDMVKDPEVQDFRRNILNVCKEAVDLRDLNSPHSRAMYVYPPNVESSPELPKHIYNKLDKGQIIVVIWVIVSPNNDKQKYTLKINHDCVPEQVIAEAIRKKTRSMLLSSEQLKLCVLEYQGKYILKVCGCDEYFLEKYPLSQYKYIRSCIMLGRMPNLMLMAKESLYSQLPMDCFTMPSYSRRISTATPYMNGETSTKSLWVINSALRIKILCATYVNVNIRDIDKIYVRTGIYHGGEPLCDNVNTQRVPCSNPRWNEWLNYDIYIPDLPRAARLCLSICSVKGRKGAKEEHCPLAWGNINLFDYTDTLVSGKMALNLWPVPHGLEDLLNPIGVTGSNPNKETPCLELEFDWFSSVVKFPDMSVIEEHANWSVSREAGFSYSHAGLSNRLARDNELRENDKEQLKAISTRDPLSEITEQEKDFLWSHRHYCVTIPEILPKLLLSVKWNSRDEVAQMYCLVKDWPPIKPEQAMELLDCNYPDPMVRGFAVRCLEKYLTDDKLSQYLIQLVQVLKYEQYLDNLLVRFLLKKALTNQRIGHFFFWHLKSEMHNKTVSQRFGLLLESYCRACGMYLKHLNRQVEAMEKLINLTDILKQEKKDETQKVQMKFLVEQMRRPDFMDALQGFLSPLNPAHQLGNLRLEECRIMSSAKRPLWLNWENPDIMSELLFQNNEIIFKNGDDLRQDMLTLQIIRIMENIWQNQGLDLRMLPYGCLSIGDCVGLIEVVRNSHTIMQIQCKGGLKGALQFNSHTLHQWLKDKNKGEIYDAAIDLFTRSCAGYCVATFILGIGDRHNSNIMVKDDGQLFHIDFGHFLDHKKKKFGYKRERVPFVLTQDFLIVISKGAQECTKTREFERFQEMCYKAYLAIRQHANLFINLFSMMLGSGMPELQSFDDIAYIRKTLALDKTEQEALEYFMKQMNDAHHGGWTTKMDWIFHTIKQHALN
T3 sequence (P27986 whole entry partner): as the sequence (P27986 whole entry partner) above

One may read the IC50 as the concentration that gives 50% inhibition. Read a high IC50 as a need for much substance. For `C[C@H](Nc1ncnc2[nH]cnc12)c1cc2cccc(N3CCCC3)c2c(=O)n1-c1ccccc1` [Compound 4, (S)-3-(1-((9H-purin-6-yl)amino)ethyl)-2-phenyl-8-(pyrrolidin-1-yl)isoquinolin-1 (2H)-one], the IC50 on PI3K δ and at PI3K γ was less than 10000 nM in each case. The EC50 with Balb/c splenic B cells was less than 1 µM. For `C[C@H](Nc1ncnc2[nH]cnc12)c1cc2cccc(N3CCN(C)CC3)c2c(=O)n1-c1ccccc1` [Compound 5, (S)-3-(1-((9H-purin-6-yl)amino)ethyl)-8-(4-methylpiperazin-1-yl)-2-phenylisoquinolin-1(2H)-one], the EC50 in the assay with Balb/c splenic B cells was less than 0.1 µM.

Consider `Cc1ccc(-c2cccc3cc([C@H](C)Nc4ncnc5[nH]cnc45)n(-c4ccccc4)c(=O)c23)cn1` [Compound 27], for which the EC50 with Balb/c splenic B cells is less than 0.1 µM. This molecule yielded an IC50 against PI3K α of less than 10000 nM. Consider `C[C@H](Nc1ncnc2[nH]cnc12)c1cc2cccc(-n3cccn3)c2c(=O)n1-c1ccccc1` [Compound 29], for which the EC50 with Balb/c splenic B cells was less than 1 µM. The IC50 against PI3K γ is less than 10000 nM.

For `Cc1cnn(-c2cccc3cc([C@H](C)Nc4ncnc5[nH]cnc45)n(-c4ccccc4)c(=O)c23)c1` [Compound 30], in the assay with Balb/c splenic B cells, the EC50 is less than 1 µM. The molecule further registered an IC50 against PI3K γ of less than 10000 nM.

In the case of `Cc1cn(-c2cccc3cc([C@H](C)Nc4ncnc5[nH]cnc45)n(-c4ccccc4)c(=O)c23)cn1` [Compound 31], in the assay with Balb/c splenic B cells, the EC50 was less than 0.1 µM. This molecule displayed a half-inhibitory concentration (IC50) at PI3K γ of less than 10000 nM. The corresponding values for `C[C@H](Nc1ncnc(N)n1)c1cc2cccc(-c3cnn(C)c3)c2c(=O)n1-c1ccccc1` [Compound 33, 3-((S)-1-(4-amino-1,3,5-triazin-2-ylamino)ethyl)-8-(1-methyl-1H-pyrazol-4-yl)-2-phenylisoquinolin-1(2H)-one] are less than 0.1 µM and less than 10000 nM.

For the molecule `Cc1ccc(-c2cccc3cc([C@H](C)Nc4ncnc(N)n4)n(-c4ccccc4)c(=O)c23)cn1` [Compound 34], the EC50 in the assay on Balb/c splenic B cells is less than 1 µM. Moreover, the IC50 against PI3K γ was less than 10000 nM. For the molecule `C[C@H](Nc1nc(N)nc2[nH]cnc12)c1cc2cccc(-c3cnn(C)c3)c2c(=O)n1-c1ccccc1` [Compound 36], in the assay with Balb/c splenic B cells, the EC50 was less than 0.1 µM. In addition, at PI3K β, the IC50 was less than 10000 nM.

For the molecule `Cc1ccc(-c2cccc3cc([C@H](C)Nc4nc(N)nc5[nH]cnc45)n(-c4ccccc4)c(=O)c23)cn1` [Compound 37], in the assay on Balb/c splenic B cells, the EC50 was less than 0.1 µM. At PI3K β, this molecule yielded an IC50 of less than 10000 nM. Regarding `C[C@H](Nc1nc(N)nc2[nH]cnc12)c1cc2cccc(-c3cccnc3)c2c(=O)n1-c1ccccc1` [Compound 38], at PI3K β, the IC50 is less than 10000 nM. `Cc1cc(-c2cccc3cc([C@H](C)Nc4ncnc5[nH]cnc45)n(-c4ccccc4)c(=O)c23)ccn1` [Compound 41]: the EC50 with Balb/c splenic B cells was less than 0.1 µM. For the same molecule, the IC50 against PI3K β is less than 10000 nM. On to `C[C@H](Nc1ncnc2[nH]cnc12)c1cc2cccc(-c3cnn(C)c3)c2c(=O)n1-c1cccc(F)c1` [Compound 45], for which the EC50 with Balb/c splenic B cells is less than 0.1 µM. For the same molecule, the IC50 at PI3K α was less than 10000 nM. As to `C[C@H](Nc1ncnc2[nH]cnc12)c1cc2cccc(-c3cccnc3)c2c(=O)[nH]1` [Compound 49], the EC50 in the assay on Balb/c splenic B cells is less than 0.1 µM.

The molecule `C[C@H](Nc1ncnc2[nH]cnc12)c1cc2cccc(-c3cnn(C)c3)c2c(=O)[nH]1` [Compound 50] gave an IC50 on PI3K δ of less than 10000 nM. Consider `C[C@H](Nc1ncnn2ccnc12)c1cc2cccc(-c3cnn(C)c3)c2c(=O)n1-c1ccccc1` [Compound 52], for which the EC50 in the assay on Balb/c splenic B cells is less than 0.1 µM. The same molecule returned an IC50 at PI3K α of less than 10000 nM. In turn, `C[C@H](Nc1ncnn2cncc12)c1cc2cccc(-c3cnn(C)c3)c2c(=O)n1-c1ccccc1` [Compound 54] gave an IC50 on PI3K δ of less than 10000 nM. Regarding `C[C@H](Nc1ncnc2[nH]cc(C#N)c12)c1cc2cccc(-c3cnn(C)c3)c2c(=O)n1-c1ccccc1` [Compound 56], the EC50 in the assay on Balb/c splenic B cells is less than 0.1 µM. In addition, at PI3K β, the IC50 was less than 10000 nM. On to `C[C@H](Nc1ncnc2[nH]cc(C(N)=O)c12)c1cc2cccc(-c3cnn(C)c3)c2c(=O)n1-c1ccccc1` [Compound 58], for which the IC50 against PI3K β and on PI3K α was less than 10000 nM each time. Consider `C[C@H](Nc1ncnc2[nH]cc(F)c12)c1cc2cccc(-c3cnn(C)c3)c2c(=O)n1C1CC1` [Compound 62], for which the EC50 with Balb/c splenic B cells was less than 0.1 µM. Moreover, the IC50 on PI3K β and on PI3K α was less than 10000 nM in each case. With `C[C@H](Nc1nc(N)ncc1C(F)(F)F)c1cc2cccc(-c3cnn(C)c3)c2c(=O)n1C1CC1` [Compound 67], the EC50 in the assay with Balb/c splenic B cells is less than 0.1 µM.

Turning to `C[C@H](Nc1nc(N)ncc1C(F)(F)F)c1cc2cccc(-c3cnn(C)c3)c2c(=O)n1-c1ccccc1` [Compound 68], the EC50 in the assay with Balb/c splenic B cells was less than 0.1 µM. As to `C[C@H](Nc1nc(N)ncc1C#N)c1cc2cccc(-c3cnn(C)c3)c2c(=O)n1C1CC1` [Compound 72], the IC50 at PI3K α is less than 10000 nM.

With `C[C@H](Nc1ncnc(N)c1C#N)c1cc2cccc(-c3cnn(C)c3)c2c(=O)n1-c1ccccc1` [Compound 73], the IC50 against PI3K α is less than 10000 nM. For `COc1ncc(-c2cccc3cc([C@H](C)Nc4ncnc5[nH]cnc45)n(-c4ccccc4)c(=O)c23)cn1` [Compound 76], the IC50 against PI3K α and on PI3K γ was less than 10000 nM throughout.

Source of the values: patent US9738644B2, “Chemical compounds, compositions and methods for kinase modulation” (Infinity Pharmaceuticals, Inc., priority 2010, dated 2017).
